PMC9928118, “Funneling modulatory peptide design with generative models: Discovery and characterization of disruptors of calcineurin protein-protein interactions” (PLOS Computational Biology, 2023)
Values belong to the sequence of their own block, whether it stands above or below them.

Test system: GST-tagged Cn
Assay: PEPperPRINT peptide microarray binding assay with GST-tagged Cn
Excerpt: We then estimated in-silico the binding strength of the various peptides to Cn by template-based docking followed by flexible backbone refinement using Modeller and PepCrawler (Figs 4 and S4). In parallel, we performed a medium-throughput qualitative binding assay using a PEPperPRINT peptide microarray to evaluate the direct binding of Cn to selected peptides (Figs 4 and S5, S3 Data).
Fig 4 Medium-throughput filtering by structural modeling and microarray screening. (a) Depiction of the structural modeling protocol: after alignment to the known PxIxIT binding site, an efficient flexible backbone structure refinement algorithm is applied to estimate the docking energy. […] (c) Coefficients of the equivalent single-site model fitted by sparse linear regression, shown in weight logo representation. […] Colors indicate physical property (black = hydrophobic, red = negatively charged, etc.). (d) Per-gene distribution of docking scores across natural fragments (lower is better). […] (e) Overview of the microarray screening. Peptides are printed on the chip (two circles per peptide). After pouring of Cn and subsequent washing, fluorescent-tagged, a Cn-targeting antibody is overlaid and an image is taken. Fluorescent spots indicate strong Cn binders. (f) Scatter plot of the sequence likelihood (normalized by length, higher is better) against fluorescence level (higher is better, see Methods for details of the data analysis).
In parallel, selected peptides were tested for Cn binding on a chip microarray (PEPperPRINT). 786 peptides were printed on the chip and were incubated with GST-tagged Cn overnight at 4°C. Following extensive washing, binding was detected by applying a fluorescently labeled (Alexa-Fluor 647) GST antibody. […] The experiment was repeated five times, and Z-normalized fluorescence levels were determined following post-processing of the raw data (Methods, S5A, S5B and S5C Fig).
The peptide array was prepared as a custom array pepper chip (PEPperPRINT). For binding detection, 1mg/ml GST-tagged Cn was incubated overnight on the microarray at 4°C. Following extensive washing, fluorescently labeled (Alexa-Fluor 647) GST-antibody. […] The experiment was repeated five times. Each scan was analyzed as follows: a grid was overlaid using the border HA markers to determine regions of interest (ROI) for each peptide (two ROIs per peptide) and the logarithm of the average fluorescence intensity was computed for each ROI. […] To remove spatial artifacts, a position-dependent baseline fluorescence was fitted using a second-order polynomial, and subtracted to the fluorescence. Fluorescence levels were next averaged over the two ROI for each peptide and Z-normalized. […] The Z-scores were averaged over the five repetitions to yield one fluorescence score per peptide.

[1] = max over the spots listed under Location on chip
[2] = mean over the spots listed under Location on chip
[3] = GST-tagged Cn, max over the chip locations
[4] = GST-tagged Cn, mean over the chip locations
[5] = max over the chip locations listed for the peptide (two spots)
[6] = mean over the chip locations listed for the peptide (two spots)
[7] = GST-tagged Cn, max over the spots named in Location on chip
[8] = GST-tagged Cn, mean over the spots named in Location on chip
[9] = GST-tagged Cn, max over the chip spots listed under Location on chip
[10] = GST-tagged Cn, mean over the chip spots listed under Location on chip
[11] = GST-tagged Cn, max over the spots on the chip (two locations)
[12] = GST-tagged Cn, mean over the spots on the chip (two locations)

Sequence: AAGAGVGIVITVTEAE [SeqRBMlowT_180]
Chip Fluorescence (max) [1]: 3.317
Chip Fluorescence (mean) [2]: 1.923

Sequence: ADEAAPEIVVSKPEHN [SeqRBMlowT_7698]
Chip Fluorescence (max) [3]: 0.05556
Chip Fluorescence (mean) [4]: -1.148

Sequence: ADEAGPEIVITPTELP [SeqRBMlowT_3142]
Chip Fluorescence (max) [3]: 0.161
Chip Fluorescence (mean) [4]: -1.962

Sequence: ADEAGVQIVITVTELP [SeqRBMlowT_1446]
Chip Fluorescence (max) [5]: 3.577
Chip Fluorescence (mean) [6]: 1.112

Sequence: ADEAIPEITITPAELP [SeqRBMlowT_424]
Chip Fluorescence (max) [1]: 2.999
Chip Fluorescence (mean) [2]: 0.8947

Sequence: ADEAIPEITITSAELP [SeqRBMlowT_2514]
Chip Fluorescence (max) [5]: 17.6628
Chip Fluorescence (mean) [6]: 2.99

Sequence: ADEAIPEIVISPPELP [SeqRBMlowT_1959]
Chip Fluorescence (max) [1]: 3.309
Chip Fluorescence (mean) [2]: 0.2863

Sequence: ADEAIPKIVIHPPEEP [SeqRBMlowT_1972]
Chip Fluorescence (max) [1]: 3.233
Chip Fluorescence (mean) [2]: -0.1428

Sequence: ADEANPEITVTPAELP [SeqRBMlowT_396]
Chip Fluorescence (max) [9]: 0.3864
Chip Fluorescence (mean) [10]: -0.7137

Sequence: ADEANPQITITPAELP [SeqRBMlowT_1252]
Chip Fluorescence (max) [3]: -0.527
Chip Fluorescence (mean) [4]: -1.133

Sequence: ADEAPPRITITPYELP [SeqRBMlowT_5415]
Chip Fluorescence (max) [5]: 3.784
Chip Fluorescence (mean) [6]: 1.112

Sequence: ADEAQPGIVVHVCELP [SeqRBMlowT_119]
Chip Fluorescence (max) [7]: 1.734
Chip Fluorescence (mean) [8]: -0.1242

Sequence: ADGAGVGIVITVTEAE [SeqRBMlowT_1411]
Chip Fluorescence (max) [11]: 1.31
Chip Fluorescence (mean) [12]: -0.2973

Sequence: ADQELSSFQPFYIEAS [Seqshuffled_9636]
Chip Fluorescence (max) [9]: 0.9604
Chip Fluorescence (mean) [10]: 0.1044

Sequence: AGCTVNNYSTNFAEND [Seqshuffled_9821]
Chip Fluorescence (max) [1]: 2.618
Chip Fluorescence (mean) [2]: 0.6288

Sequence: AHVSVPVIVVSPGETI [SeqRBM_3486]
Chip Fluorescence (max) [3]: 0.2381
Chip Fluorescence (mean) [4]: -0.4942

Sequence: AINASPEIVVGYDELP [SeqRBM_6435]
Chip Fluorescence (max) [7]: 1.452
Chip Fluorescence (mean) [8]: 1.232

Sequence: AKDDPPKIQVHPPEED [SeqRBMlowT_9786]
Chip Fluorescence (max) [11]: 1.098
Chip Fluorescence (mean) [12]: -0.565

Sequence: APSKITEVVVHECEVL [SeqRBM_4402]
Chip Fluorescence (max) [7]: 1.576
Chip Fluorescence (mean) [8]: -0.4054

Sequence: AQMAPPAINIDFAPTN [SeqRBMlowT_7215]
Chip Fluorescence (max) [9]: 0.4327
Chip Fluorescence (mean) [10]: -0.8945

Sequence: ARSFCPHRQVLSCKPK [SeqRBM_8304]
Chip Fluorescence (max) [5]: 4.921
Chip Fluorescence (mean) [6]: 0.2408

Sequence: ASDDIPTVVIHPPEED [SeqSLC4A7_Pan_troglodytes]
Chip Fluorescence (max) [1]: 2.587
Chip Fluorescence (mean) [2]: -0.184

Sequence: ASEAAPTINIDFAPNP [SeqRBMlowT_1832]
Chip Fluorescence (max) [5]: 4.3558
Chip Fluorescence (mean) [6]: -0.1882

Sequence: ASGLSPRIEITPSHEL [SeqNFATC2_Homo_sapiens]
Chip Fluorescence (max) [11]: 0.9983
Chip Fluorescence (mean) [12]: 0.1363

Sequence: ATDTTPSVVVHVCESD [SeqRCN1_Macaca_mulatta]
Chip Fluorescence (max) [11]: 1.045
Chip Fluorescence (mean) [12]: 0.2093

Sequence: ATPGTFPRGDGAHKKQ [SeqRBMlowT_5886]
Chip Fluorescence (max) [5]: 4.111
Chip Fluorescence (mean) [6]: 0.8256

Sequence: ATSEQPTFDLSSAMPT [SeqRBM_6206]
Chip Fluorescence (max) [3]: -1.8391
Chip Fluorescence (mean) [4]: -2.255

Sequence: ATSGTFPQTEGSHKKQ [SeqRBMlowT_5854]
Chip Fluorescence (max) [7]: 1.785
Chip Fluorescence (mean) [8]: -0.4136

Sequence: AYPGTYYGQDGSHKKQ [SeqRBM_820]
Chip Fluorescence (max) [1]: 2.763
Chip Fluorescence (mean) [2]: 0.3608

Sequence: DAHACAVLGIGSFSLL [SeqRBM_9753]
Chip Fluorescence (max) [11]: 1.031
Chip Fluorescence (mean) [12]: -0.08931

Sequence: DSHTVDPIPINPHSAV [SeqRBM_5538]
Chip Fluorescence (max) [9]: 0.9715
Chip Fluorescence (mean) [10]: -0.655

Sequence: DSLYQEVLGIGSFSLA [SeqCRZ1_Hypocrea_virens]
Chip Fluorescence (max) [1]: 2.584
Chip Fluorescence (mean) [2]: -0.1117

Sequence: DSSANPEITITPAELP [SeqRBMlowT_4460]
Chip Fluorescence (max) [1]: 2.624
Chip Fluorescence (mean) [2]: 0.4288

Sequence: DTLWIGSGTVTDSGNY [SeqRBM_1220]
Chip Fluorescence (max) [5]: 3.766
Chip Fluorescence (mean) [6]: 0.1629

Sequence: DTYGTASLARELPSPK [Seqshuffled_9914]
Chip Fluorescence (max) [7]: 1.867
Chip Fluorescence (mean) [8]: 0.7201

Sequence: DVSDSPDVDLKIPQAR [SeqRBM_5022]
Chip Fluorescence (max) [9]: 0.6546
Chip Fluorescence (mean) [10]: -0.1589

Sequence: EDGKVPSIEIDVREYA [SeqRBM_7430]
Chip Fluorescence (max) [1]: 2.944
Chip Fluorescence (mean) [2]: 0.8153

Sequence: EPEMSPSIFILKAHTT [SeqRBM_1051]
Chip Fluorescence (max) [3]: -0.7132
Chip Fluorescence (mean) [4]: -1.058

Sequence: ERWSIGFGDMFCNQFK [Seqrandom_9989]
Chip Fluorescence (max) [1]: 2.7221
Chip Fluorescence (mean) [2]: 0.53

Other lines, results leading:

Chip Fluorescence (max) [5]: 18.5398
Chip Fluorescence (mean) [6]: 3.2425
Sequence: ADEAIPEIVISKPEEP [SeqRBMlowT_2534]

Chip Fluorescence (max) [7]: 1.463
Chip Fluorescence (mean) [8]: 0.5736
Sequence: ADEANPEITITPAELP [SeqRBMlowT_369]

Chip Fluorescence (max) [5]: 6.273
Chip Fluorescence (mean) [6]: 1.325
Sequence: ADEANPEITITPPELP [SeqRBMlowT_372]

Chip Fluorescence (max) [5]: 16.2722
Chip Fluorescence (mean) [6]: 1.499
Sequence: ADEANPRITITPAELP [SeqRBMlowT_3131]

Chip Fluorescence (max) [5]: 5.264
Chip Fluorescence (mean) [6]: 0.1816
Sequence: ADEAPPEITITPAELP [SeqRBMlowT_445]

Chip Fluorescence (max) [5]: 3.902
Chip Fluorescence (mean) [6]: 0.5727
Sequence: ADEASPRIVITPPELP [SeqRBMlowT_1222]

Chip Fluorescence (max) [1]: 2.637
Chip Fluorescence (mean) [2]: 0.3175
Sequence: ADEAVPEITITPAELP [SeqRBMlowT_1267]

Chip Fluorescence (max) [9]: 0.739
Chip Fluorescence (mean) [10]: -0.5185
Sequence: AFLATPSIIIHPPEGP [SeqRBM_2675]

Chip Fluorescence (max) [7]: 1.862
Chip Fluorescence (mean) [8]: -0.1462
Sequence: AKMAPPAINIDFAPPN [SeqRBMlowT_7690]

Chip Fluorescence (max) [7]: 1.655
Chip Fluorescence (mean) [8]: -0.3843
Sequence: APSSWPSIVVSPPELN [SeqRBM_1086]

Chip Fluorescence (max) [9]: 0.6167
Chip Fluorescence (mean) [10]: -0.6535
Sequence: AQSSQPPISTKYDARG [Seqshuffled_9482]

Chip Fluorescence (max) [11]: 1.0396
Chip Fluorescence (mean) [12]: 0.6258
Sequence: ARPPNAAFVLDQETTY [Seqshuffled_9990]

Chip Fluorescence (max) [1]: 3.085
Chip Fluorescence (mean) [2]: 0.192
Sequence: ASALSPRIEITPSHEL [SeqNFATC1_Alligator_mississippiensis]

Chip Fluorescence (max) [11]: 1.116
Chip Fluorescence (mean) [12]: -0.403
Sequence: ASEANPEITITPAELP [SeqRBMlowT_410]

Chip Fluorescence (max) [3]: -0.1231
Chip Fluorescence (mean) [4]: -1.5167
Sequence: ASMSPPCINIDYAPIS [SeqRBM_1607]

Chip Fluorescence (max) [9]: 0.501
Chip Fluorescence (mean) [10]: -0.7597
Sequence: ASSSAPEIVVSKPEHN [SeqKCNN2_Pan_troglodytes]

Chip Fluorescence (max) [3]: -0.0111
Chip Fluorescence (mean) [4]: -1.452
Sequence: ASTSTFPQQQTAHKKQ [SeqBOI2_Podospora_anserina]

Chip Fluorescence (max) [5]: 15.1807
Chip Fluorescence (mean) [6]: 1.275
Sequence: ASVSNPEITVTSAETE [SeqRBM_9489]

Chip Fluorescence (max) [11]: 1.1168
Chip Fluorescence (mean) [12]: 0.4617
Sequence: ATDNQPGIVVHICADM [SeqRCN1_Daphnia_magna]

Chip Fluorescence (max) [9]: 0.6271
Chip Fluorescence (mean) [10]: -0.8819
Sequence: ATSFVPQLASTLFSLW [SeqRBM_1383]

Chip Fluorescence (max) [3]: -0.3986
Chip Fluorescence (mean) [4]: -1.022
Sequence: ATSGTFPQTDGSHKKQ [SeqRBMlowT_7701]

Chip Fluorescence (max) [5]: 8.388
Chip Fluorescence (mean) [6]: 2.901
Sequence: CDHMGLDIVIFVTELC [SeqRBM_1060]

Chip Fluorescence (max) [5]: 3.639
Chip Fluorescence (mean) [6]: 1.593
Sequence: DRMAQDSMGWCRECLM [Seqrandom_9951]

Chip Fluorescence (max) [5]: 3.74
Chip Fluorescence (mean) [6]: 0.5914
Sequence: DSLEGATIVITLTEGK [SeqRBM_8933]

Chip Fluorescence (max) [3]: -0.1629
Chip Fluorescence (mean) [4]: -1.069
Sequence: DSLKIPQVRMRIDSAT [SeqRBM_3711]

Chip Fluorescence (max) [9]: 0.6781
Chip Fluorescence (mean) [10]: 0.06214
Sequence: DSLYQEVLGIRSFSLS [SeqRBM_8930]

Chip Fluorescence (max) [5]: 3.895
Chip Fluorescence (mean) [6]: 0.1296
Sequence: EGKMDPELYISTVEAQ [SeqRBM_3392]
